How the values were obtained:
[1] = tested on: Raji, human Burkitts lymphoma cells; experiment: Cell-MTS proliferation assay, Raji; format: cell-based; settings: Homo sapiens, Raji, 168 hr
Procedure, shortened: (§1)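 Seven-day colorimetric MTS assay; compound at 11 concentrations from 100 μM down to 2.0 nM final, added a day after plating. IC50 from OD490 normalised to DMSO controls.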

[2] = tested on: HL-60, human proleukemia cells; experiment: Cell-MTS proliferation assay, HL-60; format: cell-based; settings: Homo sapiens, HL-60, 168 hr
Procedure, shortened: as §1

[3] = target: BRD4(BD1) (Homo sapiens (Human), UniProt O60885); experiment: In vitro enzyme inhibition assay (BRD4 AlphaScreen); format: binding
Procedure, shortened: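 AlphaScreen proximity readout, using streptavidin donor and Ni-chelate acceptor beads at 5 μg/mL final, monitors biotin-H4 tetraacetylated peptide interaction with purified His-tagged BRD4.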

[4] = tested on: NCI-H460, human non-small cell lung cancer cells; experiment: Cell-MTS proliferation assay, NCI-H460; format: cell-based; settings: Homo sapiens, NCI-H460, 168 hr
Procedure, shortened: as §1

[5] = in vitro enzyme inhibition assay

Row | SMILES | IC50 ([1]; Cell-MTS, class symbols A/B/C) | IC50 ([2]; Cell-MTS, class symbols A/B/C) | IC50 ([3]; class symbols A/B/C) | IC50 ([4]; Cell-MTS, class symbols A/B/C) | IC50 ([1]; Cell-MTS proliferation) | IC50 ([2]; Cell-MTS proliferation) | IC50 [3, 5] | IC50 ([4]; Cell-MTS proliferation)
1 | CCS(=O)(=O)c1ccc(OCC2CC2)c(-c2cn(C)c(=O)c3ccccc23)c1 [Example 135, 4-[2-(cyclopropylmethoxy)-5-ethylsulfonylphenyl]-2-methylisoquinolin-1-one] | < 500 nM | < 500 nM | < 500 nM | 500 to 5000 nM | – | – | – | –
2 | Cc1cc(-c2cc(S(C)(=O)=O)ccc2OCC2CC2)nn(C)c1=O [Example 136, 6-[2-(cyclopropylmethoxy)-5-methylsulfonylphenyl]-2,4-dimethylpyridazin-3-one] | > 5000 nM | 500 to 5000 nM | 500 to 5000 nM | > 5000 nM | – | – | – | –
3 | CCS(=O)(=O)Nc1ccc(Oc2ccc(F)cc2F)c(-c2cc(C(F)(F)F)c(=O)n(C)c2)c1 [Example 138, N-[4-(2,4-difluorophenoxy)-3-[1-methyl-6-oxo-5-(trifluoromethyl)pyridine-3-yl]phenyl]ethanesulfonamide] | < 500 nM | < 500 nM | < 500 nM | > 5000 nM | – | – | – | –
4 | CCS(=O)(=O)Nc1ccc(Oc2ccc(F)cc2F)c(-c2cn(C)c(=O)cc2F)c1 [Example 139, N-[4-(2,4-difluorophenoxy)-3-(4-fluoro-1-methyl-6-oxopyridin-3-yl)phenyl]ethanesulfonamide] | < 500 nM | < 500 nM | < 500 nM | > 5000 nM | – | – | – | –
5 | CCS(=O)(=O)Nc1ccc(Oc2ccc(F)cc2F)c(-c2cc(C3CC3)c(=O)n(C)c2)c1 [Example 140, N-[3-(5-cyclopropyl-1-methyl-6-oxopyridin-3-yl)-4-(2,4-difluorophenoxy)phenyl]ethanesulfonamide] | – | – | – | – | < 500 nM | < 500 nM | < 500 nM | > 5000 nM
6 | Cn1cc(-c2nc(CS(C)(=O)=O)ncc2OCC2CC2)c2ccccc2c1=O [Example 143, 4-[5-(cyclopropylmethoxy)-2-(methylsulfonylmethyl)pyrimidin-4-yl]-2-methylisoquinolin-1-one] | – | – | – | – | 500 to 5000 nM | 500 to 5000 nM | < 500 nM | > 5000 nM
7 | Cc1cc(-c2nc(CS(C)(=O)=O)ncc2OCC2CC2)cn(C)c1=O [Example 144, 5-[5-(cyclopropylmethoxy)-2-(methylsulfonylmethyl)pyrimidin-4-yl]-1,3-dimethylpyridin-2-one] | – | – | – | – | > 5000 nM | 500 to 5000 nM | < 500 nM | > 5000 nM
8 | Cn1cc(-c2ccc3c(=O)n(C)cc(-c4nc(CS(C)(=O)=O)ncc4OCC4CC4)c3c2)cn1 [Example 145, 4-[5-(cyclopropylmethoxy)-2-(methylsulfonylmethyl)pyrimidin-4-yl]-2-methyl-6-(1-methylpyrazol-4-yl)isoquinolin-1-one] | – | – | – | – | 500 to 5000 nM | < 500 nM | < 500 nM | > 5000 nM
9 | Cn1cc(-c2nc(NS(C)(=O)=O)ncc2OCC2CC2)c2ccccc2c1=O [Example 152, N-[5-(cyclopropylmethoxy)-4-(2-methyl-1-oxoisoquinolin-4-yl)pyrimidin-2-yl]methanesulfonamide] | – | – | – | – | < 500 nM | < 500 nM | < 500 nM | > 5000 nM
10 | Cc1cc(-c2nc(NS(C)(=O)=O)ncc2OCC2CC2)cn(C)c1=O [Example 153, N-[5-(cyclopropylmethoxy)-4-(1,5-dimethyl-6-oxopyridin-3-yl)pyrimidin-2-yl]methanesulfonamide] | – | – | – | – | 500 to 5000 nM | 500 to 5000 nM | < 500 nM | > 5000 nM
11 | Cn1cc(-c2ccc3c(=O)n(C)cc(-c4nc(NS(C)(=O)=O)ncc4OCC4CC4)c3c2)cn1 [Example 154, N-[5-(cyclopropylmethoxy)-4-[2-methyl-6-(1-methylpyrazol-4-yl)-1-oxoisoquinolin-4-yl]pyrimidin-2-yl]methanesulfonamide] | – | – | – | – | < 500 nM | < 500 nM | < 500 nM | > 5000 nM
12 | CCS(=O)(=O)Nc1ncc(OCC2CC2)c(-c2cn(C)c(=O)c3ccccc23)n1 [Example 155, N-[5-(cyclopropylmethoxy)-4-(2-methyl-1-oxoisoquinolin-4-yl)pyrimidin-2-yl]ethanesulfonamide] | – | – | – | – | < 500 nM | < 500 nM | < 500 nM | > 5000 nM
13 | CCS(=O)(=O)Nc1ncc(OCC2CC2)c(-c2cn(C)c(=O)c3ccc(F)cc23)n1 [Example 157, N-[5-(cyclopropylmethoxy)-4-(6-fluoro-2-methyl-1-oxoisoquinolin-4-yl)pyrimidin-2-yl]ethanesulfonamide] | – | – | – | – | < 500 nM | < 500 nM | < 500 nM | > 5000 nM
14 | CCN(c1ncc(OCC2CC2)c(-c2cn(C)c(=O)c3ccccc23)n1)S(C)(=O)=O [Example 161, N-[5-(cyclopropylmethoxy)-4-(2-methyl-1-oxoisoquinolin-4-yl)pyrimidin-2-yl]-N-ethylmethanesulfonamide] | – | – | – | – | < 500 nM | < 500 nM | < 500 nM | > 5000 nM
15 | CCN(c1ncc(OCC2CC2)c(-c2cc(C)c(=O)n(C)c2)n1)S(C)(=O)=O [Example 162, N-[5-(cyclopropylmethoxy)-4-(1,5-dimethyl-6-oxopyridin-3-yl)pyrimidin-2-yl]-N-ethylmethanesulfonamide] | – | – | – | – | < 500 nM | < 500 nM | < 500 nM | > 5000 nM

Further lines, results first:

Row | IC50 ([1]; Cell-MTS, class symbols A/B/C) | IC50 ([2]; Cell-MTS, class symbols A/B/C) | IC50 ([3]; class symbols A/B/C) | IC50 ([4]; Cell-MTS, class symbols A/B/C) | IC50 ([1]; Cell-MTS proliferation) | IC50 ([2]; Cell-MTS proliferation) | IC50 [3, 5] | IC50 ([4]; Cell-MTS proliferation) | SMILES
16 | – | – | – | – | > 5000 nM | > 5000 nM | 500 to 5000 nM | > 5000 nM | Cc1cc(-c2nc(S(C)(=O)=O)ncc2Oc2ccc(F)cc2F)cn(C)c1=O [Example 149, 5-[5-(2,4-difluorophenoxy)-2-methylsulfonylpyrimidin-4-yl]-1,3-dimethylpyridin-2-one]
17 | – | – | – | – | 500 to 5000 nM | 500 to 5000 nM | < 500 nM | > 5000 nM | COc1cc(-c2nc(S(C)(=O)=O)ncc2Oc2ccc(F)cc2F)cn(C)c1=O [Example 150, 5-[5-(2,4-difluorophenoxy)-2-methylsulfonylpyrimidin-4-yl]-3-methoxy-1-methylpyridin-2-one]
18 | – | – | – | – | < 500 nM | < 500 nM | < 500 nM | > 5000 nM | Cn1cc(-c2nc(NS(C)(=O)=O)ncc2OCC2CC2)c2ccc(F)cc2c1=O [Example 158, N-[5-(cyclopropylmethoxy)-4-(7-fluoro-2-methyl-1-oxoisoquinolin-4-yl)pyrimidin-2-yl]methanesulfonamide]
19 | – | – | – | – | < 500 nM | < 500 nM | < 500 nM | > 5000 nM | Cn1cc(-c2nc(NS(C)(=O)=O)ncc2OCC2CC2)c2cc(F)ccc2c1=O [Example 159, N-[5-(cyclopropylmethoxy)-4-(6-fluoro-2-methyl-1-oxoisoquinolin-4-yl)pyrimidin-2-yl]methanesulfonamide]
20 | – | – | – | – | < 500 nM | < 500 nM | < 500 nM | > 5000 nM | CCS(=O)(=O)Nc1ncc(OCC2CC2)c(-c2cn(C)c(=O)c3cc(F)ccc23)n1 [Example 160, N-[5-(cyclopropylmethoxy)-4-(7-fluoro-2-methyl-1-oxoisoquinolin-4-yl)pyrimidin-2-yl]ethanesulfonamide]
21 | – | – | – | – | < 500 nM | 500 to 5000 nM | < 500 nM | > 5000 nM | Cn1cc(-c2nc(NS(C)(=O)=O)ncc2OCC2CC2)c2c(c1=O)CCCC2 [Example 163, N-[5-(cyclopropylmethoxy)-4-(2-methyl-1-oxo-5,6,7,8-tetrahydroisoquinolin-4-yl)pyrimidin-2-yl]methanesulfonamide]
22 | – | – | – | – | < 500 nM | 500 to 5000 nM | < 500 nM | > 5000 nM | CCS(=O)(=O)Nc1ncc(OCC2CC2)c(-c2cn(C)c(=O)c3c2CCCC3)n1 [Example 164, N-[5-(cyclopropylmethoxy)-4-(2-methyl-1-oxo-5,6,7,8-tetrahydroisoquinolin-4-yl)pyrimidin-2-yl]ethanesulfonamide]
23 | – | – | – | – | < 500 nM | < 500 nM | < 500 nM | > 5000 nM | Cc1cc(-c2nc(NS(C)(=O)=O)ncc2Oc2ccc(F)cc2F)cn(C)c1=O [Example 166, N-[5-(2,4-difluorophenoxy)-4-(1,5-dimethyl-6-oxopyridin-3-yl)pyrimidin-2-yl]methanesulfonamide]
24 | – | – | – | – | < 500 nM | < 500 nM | < 500 nM | > 5000 nM | CCS(=O)(=O)Nc1ncc(Oc2ccc(F)cc2F)c(-c2cc(C)c(=O)n(C)c2)n1 [Example 169, N-[5-(2,4-difluorophenoxy)-4-(1,5-dimethyl-6-oxopyridin-3-yl)pyrimidin-2-yl]ethanesulfonamide]
25 | – | – | – | – | < 500 nM | < 500 nM | < 500 nM | > 5000 nM | CCS(=O)(=O)Nc1ncc(Oc2ccc(F)cc2F)c(-c2cn(C)c(=O)c3ccccc23)n1 [Example 170, N-[5-(2,4-difluorophenoxy)-4-(2-methyl-1-oxoisoquinolin-4-yl)pyrimidin-2-yl]ethanesulfonamide]
26 | – | – | – | – | 500 to 5000 nM | 500 to 5000 nM | < 500 nM | > 5000 nM | Cn1cc(-c2nc(NS(C)(=O)=O)ncc2Oc2ccc(F)cc2F)c2c(c1=O)CCCC2 [Example 172, N-[5-(2,4-difluorophenoxy)-4-(2-methyl-1-oxo-5,6,7,8-tetrahydroisoquinolin-4-yl)pyrimidin-2-yl]methanesulfonamide]
